Assay results published in ChEMBL document CHEMBL2407026, “11β-HSD1 inhibitors from Walsura cochinchinensis” (J Nat Prod, 2013).

Tests used:
[1] = biological target: T1, 11-beta-hydroxysteroid dehydrogenase 1 (Homo sapiens, UniProt P28845); experiment: Inhibition of human microsomal 11beta-HSD1 overexpressed in HEK293 cells using [3H]-cortisone as substrate assessed as formation of [3H]-cortisol at 10 uM by scintillation proximity assay in presence of NADPH relative to control
Target sequence in this assay (P28845 whole entry, looked up): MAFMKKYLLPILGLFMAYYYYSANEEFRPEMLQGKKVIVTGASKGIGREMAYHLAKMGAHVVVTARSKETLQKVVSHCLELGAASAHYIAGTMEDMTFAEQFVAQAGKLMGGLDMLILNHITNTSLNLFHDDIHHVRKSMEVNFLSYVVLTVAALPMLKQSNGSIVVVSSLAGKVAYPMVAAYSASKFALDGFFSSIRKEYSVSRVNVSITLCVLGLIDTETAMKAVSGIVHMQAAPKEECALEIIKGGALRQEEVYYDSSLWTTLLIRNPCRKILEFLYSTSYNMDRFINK

[2] = biological target: T1, 11-beta-hydroxysteroid dehydrogenase 1; experiment: Inhibition of human microsomal 11beta-HSD1 overexpressed in HEK293 cells using [3H]-cortisone as substrate assessed as formation of [3H]-cortisol by scintillation proximity assay in presence of NADPH
Target sequence in this assay (P28845 whole entry): as the sequence (P28845 whole entry, looked up) above

[3] = biological target: 11-beta-hydroxysteroid dehydrogenase 1 (Mus musculus, UniProt P50172); experiment: Inhibition of mouse microsomal 11beta-HSD1 overexpressed in HEK293 cells using [3H]-cortisone as substrate assessed as formation of [3H]-cortisol by scintillation proximity assay in presence of NADPH
Sequence of 11-beta-hydroxysteroid dehydrogenase 1 (Mus musculus, UniProt P50172) (P50172 whole entry): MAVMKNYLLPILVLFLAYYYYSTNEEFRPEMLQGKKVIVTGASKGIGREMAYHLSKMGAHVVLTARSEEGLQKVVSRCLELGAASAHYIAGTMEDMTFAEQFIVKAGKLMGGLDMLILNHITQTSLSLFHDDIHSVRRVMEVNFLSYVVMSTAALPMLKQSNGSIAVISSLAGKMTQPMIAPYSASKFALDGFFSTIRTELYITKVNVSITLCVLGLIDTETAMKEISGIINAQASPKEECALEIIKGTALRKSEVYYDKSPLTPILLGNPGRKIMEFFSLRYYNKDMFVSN

[4] = biological target: 11-beta-hydroxysteroid dehydrogenase 1 (Mus musculus) (UniProt P50172); experiment: Inhibition of mouse microsomal 11beta-HSD1 overexpressed in HEK293 cells using [3H]-cortisone as substrate assessed as formation of [3H]-cortisol at 10 uM by scintillation proximity assay in presence of NADPH relative to control
Sequence of 11-beta-hydroxysteroid dehydrogenase 1 (Mus musculus) (P50172 whole entry, looked up): as the sequence (P50172 whole entry) above

CC(C)=CC(=O)[C@@H](O)[C@H](C)[C@@H]1CC[C@]2(C)C3=CC[C@H]4C(C)(C)[C@@H](O)CC[C@]4(C)[C@H]3C[C@@H](O)[C@@]12C gave an inhibition [1] greater than 60%, an IC50 [2] of 3.74 µM and an IC50 [3] of 1.15 µM. It also gave an inhibition [4] greater than 60%.

In the case of CCC(C)C(=O)O[C@@H]1C[C@H]2C(C)(C)C(=O)C=C[C@]2(C)[C@H]2[C@@H](OC(C)=O)C[C@]3(C)C(=CC(=O)[C@H]3c3ccoc3)[C@@]21C (relative stereo), the inhibition [1] is reported as greater than 50% and the IC50 [2] is reported as 11.4 µM.

Molecule CC(C)=CC(=O)[C@@H](O)[C@H](C)[C@@H]1CC[C@]2(C)C3=CC[C@H]4C(C)(C)[C@H](O)CC[C@]4(C)[C@H]3C[C@@H](O)[C@@]12C has an inhibition [1] of 45% and an inhibition [4] of 45%.

For CC(C)(O)[C@@H](O)[C@H]1C[C@@H]([C@@H]2CC[C@]3(C)C4=CC[C@H]5C(C)(C)[C@@H](O)CC[C@]5(C)[C@H]4CC[C@@]23C)C(=O)O1, the inhibition [1] was greater than 60%, the IC50 [2] was 3.2 µM and the IC50 [3] was 0.82 µM. It also gave an inhibition [4] greater than 60%.
